Experimental data published in patent US20090170871A1, “IL-8 Receptor Antagonists” (SMITHKLINE BEECHAM CORPORATION, priority 2006, published 2009).

Tested on: whole blood neutrophil CD11b expression (CXCL2-stimulated)
Assay: Neutrophil CD11b Stimulation Following Oral Dosing to Rats
Format: in vivo, Lewis rats
Procedure: Rat whole blood, 3 ml, was drawn by cardiac puncture in a syringe containing 100 μl of 0.25 M EDTA (GIBCO, Grand Island, N.Y.). Rat CXCL2 (PeproTech, Rocky Hill, N.J.) stock was made by reconstitution in Kreb's/0.1% BSA (KBSA) at 10 μM. The stock was diluted to “11×” the maximum concentration used in DPBS (GIBCO) and serially diluted in KBSA/DPBS vehicle. […] The tubes were incubated for 30 minutes in a 37° C. bath, with gentle hand agitation every 10 minutes. The samples were then placed on ice for 10 minutes followed by addition of 10 μl of anti-rat-CD11b-FITC or FITC-labeled mouse IgG2a isotype control (both Antigenix America, Huntington Station, N.Y.) and incubated for 30 minutes on ice. FACS Lysing Solution (Becton Dickinson, San Jose, Calif.), 1 ml of 1×, was added with immediate vigorous vortexing, followed by additional vortex after the solution was added to the last sample. Samples were incubated for 10 minutes at room temperature and the leukocytes were pelleted at ˜300×g and washed with DPBS. Cells were resuspended in 650 μl of 1% paraformaldahyde. […] FL1 (green FITC fluorescence, directly relating to CD11b content) of this population was then measured as mean channel fluorescence by analysis with CellQuest software.

## Cc1ccc(S(=O)(=O)O)cc1.O=C(Nc1ccc(Cl)c(S(=O)(=O)N2CCNCC2)c1O)Nc1cccc(F)c1Cl [present compound, N-[4-chloro-2-hydroxy-3-(piperazine-1-sulfonyl)phenyl]-N′-(2-chloro-3-fluorophenyl)urea p-toluenesulfonate]
Oral 10 mg/kg, Lewis rats, vehicle-treated rats 4.7 nM (1.9-7.4; 95% C.I.), treated 95% C.I. 10.0-14.7, p<0.001, n=6 per group
  EC50 of the CXCL2 concentration response curve (CD11b expression) in treated rats: 12.3 nM
Oral dosing to Lewis rats at 10 mg/kg, blood drawn one hour later
  inhibition of whole blood neutrophil CD11b expression: active
